Data published in patent US7164023B2, “Benzoquinolizine-2-carboxylic acid arginine salt tetrahydrate” (priority 2003, dated 2007).
Structures can show the parent of a compound that is named as a salt.

Experiments:
[1] = Conversion of monohydrate to tetrahydrate under ambient conditions, by XRPD; type: physicochemical; conditions: ambient temperature (35° C.) and relative humidity (60%)
Description: X-ray diffraction analyses (40 kv x 40 mA Rigaku D/max 2200) were performed under the conditions listed below: • Scan speed 5°/min or 20°/min • Sampling time 7 min or 2 min • Scan mode: continuous • 2θ/θ reflection • Cu target (Ni filter)

[2] = in vivo; cited from earlier work
[3] = tested on: broad spectrum of microorganisms including antibiotic-resistant strains of Staphylococcus aureus, more particularly glycopeptide-resistant staphylococci; conditions: incl. antibiotic-resistant S. aureus; cited from earlier work
[4] = Temperature/relative humidity-related stability (validated HPLC assay, XRPD); type: physicochemical
Excerpt: 3 Sample batches of the compound were stored under the conditions of the study as stated in the table below. The assay was done by a validated HPLC method.

C[C@H]1CCc2c(N3CCC(O)CC3)c(F)cc3c(=O)c(C(=O)O)cn1c23.N=C(N)NCCC[C@H](N)C(=O)O [monohydrate, S-(−)-9-fluoro-6,7-dihydro-8-(4-hydroxypiperidin-1-yl)-5-methyl-1-oxo-1H,5H-benzo[i,j]quinolizine-2-carboxylic acid L-arginine salt]
Physical stability / moisture absorption [1]: highly unstable and rapidly absorbs moisture
Time until XRPD spectra change towards tetrahydrate [1]: ≤ 20 min

C[C@H]1CCc2c(N3CCC(O)CC3)c(F)cc3c(=O)c(C(=O)O)cn1c23.N=C(N)NCCC[C@H](N)C(=O)O [S-(−)-9-fluoro-6,7-dihydro-8-(4-hydroxypiperidin-1-yl)-5-methyl-1-oxo-1H,5H-benzo[i,j]quinolizine-2-carboxylic acid L-arginine salt]
Overall tolerability [2]: excellent overall tolerability
Efficacy against microorganisms in mammals [3]: effective against a broad spectrum of microorganisms

C[C@H]1CCc2c(N3CCC(O)CC3)c(F)cc3c(=O)c(C(=O)O)cn1c23 [S-(−)-9-fluoro-6,7-dihydro-8-(4-hydroxypiperidin-1-yl)-5-methyl-1-oxo-1H,5H-benzo[i,j]quinolizine-2-carboxylic acid L-arginine salt tetrahydrate]
HPLC assay on storage ([4]; 25° C./60% relative humidity, 3 months): 99.22%
HPLC assay on storage ([4]; 25° C./60% relative humidity, Initial): 99.31%
HPLC assay on storage ([4]; 40° C./75% relative humidity, 1 month): 99.30%
HPLC assay on storage ([4]; 40° C./75% relative humidity, 2 months): 99.25%
HPLC assay on storage ([4]; 40° C./75% relative humidity, 3 months): 99.27%
HPLC assay on storage ([4]; 40° C./75% relative humidity, Initial): 99.31%
Crystallinity on storage as seen by XRPD spectra ([4]; storage conditions of the stability study): underwent no changes
